Laboratory results taken from ChEMBL document CHEMBL3576796, “A Broad Anti-influenza Hybrid Small Molecule That Potently Disrupts the Interaction of Polymerase Acidic Protein-Basic Protein 1 (PA-PB1) Subunits” (J Med Chem, 2015).

Experiment: Antiviral activity against Influenza A virus A/Parma/24/09 (H1N1) (Oseltamivir-resistant) assessed as reduction in plaque formation after 48 hrs by plaque reduction assay
Assay type: functional, Influenza A virus (A/Parma/24/2009(H1N1))
Work on CCCOc1ccc(C(=O)Nc2nc3n(n2)C(c2ccccc2)C=C(C)N3)cc1 (centres undefined) yielded an EC50 of 49 µM. For Cc1cc(-c2ccccc2)nc2nc(NC(=O)c3ccccc3)nn12, the EC50 was 25 µM. Work on Cc1cc(-c2ccccc2)n2nc(C(=O)Nc3sc4c(c3C(N)=O)CCCCC4)nc2n1 yielded an EC50 of 25 µM. Cc1cc(-c2ccccc2)nc2nc(C(=O)Nc3sc4c(c3C(N)=O)CCCCC4)nn12 showed an EC50 of 5 µM.
